Reference: patent US20070190523A1 (priority 2002, published 2007)

These molecules were tested on mutant HIV-1 with I84V/L90M mutations. Conditions: I84V/L90M mutant.
Format: cell-based
`CC(C)CN(CC(O)C(Cc1ccccc1)NC(=O)OC1COC2OCCC12)S(=O)(=O)c1ccc(OCP(=O)(O)O)cc1` (stereo not drawn) was tested, and the I84V/L90M fold change was “− (≦3)”.
For `COc1ccc(S(=O)(=O)N(CC(C)C)CC(O)C(Cc2ccccc2)NC(=O)OC2COC3OCCC23)cc1O` (stereo not drawn), the I84V/L90M fold change was “− (≦3)”.
With `COc1ccc(S(=O)(=O)N(CC(C)C)CC(O)C(Cc2ccccc2)NC(=O)OC2COC3OCCC23)cc1OCP(=O)(O)O` (stereo not drawn) the I84V/L90M fold change was “− (≦3)”.
For `COc1ccc(S(=O)(=O)N(CCN(C)C)CC(O)C(Cc2ccc(O)cc2)NC(=O)OC2COC3OCCC23)cc1` (stereo not drawn), the I84V/L90M fold change was “− (≦3)”.
For `COc1ccc(S(=O)(=O)N(CC(C)C)C[C@@H](O)[C@H](Cc2ccc(OCP(=O)(O)O)cc2)NC(=O)OC2CCOC2)cc1` (stereo partly drawn) [OMe, OH], the I84V/L90M fold change was “+++ (>30)”.
With `CCNc1ccc(S(=O)(=O)N(CC(C)C)CC(O)C(Cc2ccc(OCP(=O)(OCC)OCC)cc2)NC(=O)OC2COC3OCCC23)cc1` (stereo not drawn) the I84V/L90M fold change was “− (≦3)”.
In the case of `CC(C)CN(CC(O)C(Cc1ccc(O)cc1)NC(=O)OC1COC2OCCC12)S(=O)(=O)c1ccc(N)cc1` (stereo not drawn) [OH, p-NH2], the I84V/L90M fold change is reported as “− (≦3)”.
With `CC(C)CN(CC(O)C(Cc1ccc(OCP(=O)(OCc2ccccc2)OCc2ccccc2)cc1)NC(=O)OC1COC2OCCC12)S(=O)(=O)c1ccccc1` (stereo not drawn) the I84V/L90M fold change was “+ (>3 to ≦10)”.
For `CCOP(=O)(COc1ccc(CC(NC(=O)OC2COC3OCCC23)C(O)CN(CC(C)C)S(=O)(=O)c2ccc(N)cc2)cc1)OCC` (stereo not drawn), the I84V/L90M fold change was “− (≦3)”.
In the case of `Cc1cccc(C)c1OCC(=O)NC(Cc1ccc(OCP(=O)(OCc2ccccc2)OCc2ccccc2)cc1)C(O)CN(CC(C)C)S(=O)(=O)c1ccc(N)cc1` (stereo not drawn), the I84V/L90M fold change is reported as “− (≦3)”.
`CC(C)CN(CC(O)C(Cc1ccc(OCP(=O)(O)O)cc1)NC(=O)OC1COC2OCCC12)S(=O)(=O)c1cccc(N)c1` (stereo not drawn) was tested, and the I84V/L90M fold change was “− (≦3)”.
`Cc1ccc(C(=O)NC(Cc2ccc(OCP(=O)(OCc3ccccc3)OCc3ccccc3)cc2)C(O)CN(CC(C)C)S(=O)(=O)c2ccc(N)cc2)cc1O` (stereo not drawn) was tested, and the I84V/L90M fold change was “+ (>3 to ≦10)”.
With `CCOP(=O)(COc1cc(S(=O)(=O)N(CC(C)C)CC(O)C(Cc2ccccc2)NC(=O)OC2COC3OCCC23)ccc1O)OCC` (stereo not drawn) the I84V/L90M fold change was “− (≦3)”.
With `CC(C)CN(CC(O)C(Cc1ccc(OCP(=O)(OCc2ccccc2)OCc2ccccc2)cc1)NC(=O)OC1COC2OCCC12)S(=O)(=O)c1ccc(C(F)(F)F)cc1` (stereo not drawn) the I84V/L90M fold change was “− (≦3)”.
For `CCCCOC(=O)C(C)OP(=O)(COc1ccc(CC(NC(=O)OC2COC3OCCC23)C(O)CN(CC(C)C)S(=O)(=O)c2cccc(N)c2)cc1)Oc1ccccc1` (stereo not drawn), the I84V/L90M fold change was “− (≦3)”.
For `CC(C)CN(CC(O)C(Cc1ccc(OCP(=O)(OCc2ccccc2)OCc2ccccc2)cc1)NC(=O)OC1COC2OCCC12)S(=O)(=O)c1ccc(C#N)cc1` (stereo not drawn), the I84V/L90M fold change was “− (≦3)”.
With `CC(C)CN(CC(O)C(Cc1ccc(OCP(=O)(OCc2ccccc2)OCc2ccccc2)cc1)NC(=O)OC1COC2OCCC12)S(=O)(=O)c1ccc(N)cc1` (stereo not drawn) the I84V/L90M fold change was “− (≦3)”.
`CC(C)CN(CC(O)C(Cc1ccc(OCP(=O)(OCc2ccccc2)OCc2ccccc2)cc1)NC(=O)OC1COC2OCCC12)S(=O)(=O)c1cccc(N)c1` (stereo not drawn) was tested, and the I84V/L90M fold change was “− (≦3)”.

Same assay, conditions: fold difference in EC50 vs wild type, class symbols
`COc1ccc(S(=O)(=O)N(CC(C)C)CC(O)C(Cc2ccc(OCP(=O)(NC(C)C(=O)OC(C)C)Oc3ccccc3)cc2)NC(=O)OC2COC3OCCC23)cc1` (stereo not drawn) [drawing 608 R1=OPh R2=(D)Ala-iPr] was tested, and the I84V/L90M fold change was “− (≦3)”.
In the case of `CCOP(=O)(Cc1ccc2c(c1)CCN(CC(NC(=O)OC1COC3OCCC13)C(O)CN(CC(C)C)S(=O)(=O)c1ccc(OC)cc1)C2)OCC` (stereo not drawn), the I84V/L90M fold change is reported as “+ (>3 to ≦10)”.
With `COc1ccc(S(=O)(=O)N(CC(C)C)CC(O)C(Cc2ccc(OCP(=O)(OCc3ccccc3)OCc3ccccc3)cc2)NC(=O)OC2COC3OCCC23)cc1` (stereo not drawn) [drawing 602 R1=OBn R2=OBn] the I84V/L90M fold change was “− (≦3)”.
With `CCOP(=O)(OCC)c1ccc(CN(C)CC(NC(=O)OC2COC3OCCC23)C(O)CN(CC(C)C)S(=O)(=O)c2ccc(OC)cc2)cc1` (stereo not drawn) the I84V/L90M fold change was “− (≦3)”.
`CCOP(=O)(CCC1=CCN(CC(NC(=O)OC2COC3OCCC23)C(O)CN(CC(C)C)S(=O)(=O)c2ccc(OC)cc2)CC1)OCC` (stereo not drawn) was tested, and the I84V/L90M fold change was “+ (>3 to ≦10)”.
With `CCNP(=O)(COc1ccc(CC(NC(=O)OC2COC3OCCC23)C(O)CN(CC(C)C)S(=O)(=O)c2ccc(OC)cc2)cc1)NCC` (stereo not drawn) [drawing 606 R1=NHEt R2=NHEt] the I84V/L90M fold change was “− (≦3)”.
With `CCOP(=O)(CNc1ccc(CC(NC(=O)OC2COC3OCCC23)C(O)CN(CC(C)C)S(=O)(=O)c2ccc(OC)cc2)cc1)OCC` (stereo not drawn) the I84V/L90M fold change was “− (≦3)”.
For `COc1ccc(S(=O)(=O)N(CC(C)C)CC(O)C(Cc2ccc(NCP(=O)(OCc3ccccc3)OCc3ccccc3)cc2)NC(=O)OC2COC3OCCC23)cc1` (stereo not drawn), the I84V/L90M fold change was “− (≦3)”.
`CCOP(=O)(CON=Cc1ccc(CC(NC(=O)OC2COC3OCCC23)C(O)CN(CC(C)C)S(=O)(=O)c2ccc(OC)cc2)cc1)OCC` (stereo not drawn) [drawing 615 R1=Et R2=Et] was tested, and the I84V/L90M fold change was “− (≦3)”.
For `CCOP(=O)(OCC)c1ccc(CC(NC(=O)OC2COC3OCCC23)C(O)CN(CC(C)C)S(=O)(=O)c2ccc(OC)cc2)cc1` (stereo not drawn) [drawing 604 R1=OEt R2=OEt], the I84V/L90M fold change was “− (≦3)”.
In the case of `CCOP(=O)(Cc1ccc(NCC(NC(=O)OC2COC3OCCC23)C(O)CN(CC(C)C)S(=O)(=O)c2ccc(OC)cc2)cc1)OCC` (stereo not drawn), the I84V/L90M fold change is reported as “+ (>3 to ≦10)”.
With `CCCCOC(=O)C(C)NP(=O)(COc1ccc(CC(NC(=O)OC2COC3OCCC23)C(O)CN(CC(C)C)S(=O)(=O)c2ccc(OC)cc2)cc1)Oc1ccccc1` (stereo not drawn) [drawing 608 R1=OPh R2=Ala-Bu] the I84V/L90M fold change was “− (≦3)”.
In the case of `COc1ccc(S(=O)(=O)N(CC(C)C)CC(O)C(Cc2ccc(OCP(=O)(O)O)cc2)NC(=O)OC2COC3OCCC23)cc1` (stereo not drawn) [drawing 602 R1=OH R2=OH], the I84V/L90M fold change is reported as “− (≦3)”.
For `COC(=O)N[C@H](C(=O)N[C@@H](Cc1ccccc1)[C@@H](O)CN(Cc1ccc(-c2ccccn2)cc1)NC(=O)[C@@H](NC(=O)OC)C(C)(C)C)C(C)(C)C` [Atazanavir, reference compound], the I84V/L90M fold change was “+++ (>30)”.
In the case of `CCOP(=O)(COc1ccc(CC(NC(=O)OC2COC3OCCC23)C(O)CN(CC(C)C)S(=O)(=O)c2ccc(OC)cc2)cc1)OCC` (stereo not drawn) [drawing 602 R1=OEt R2=OEt], the I84V/L90M fold change is reported as “− (≦3)”.
`COc1ccc(S(=O)(=O)N(CC(C)C)CC(O)C(Cc2ccc(OCP(=O)(OC(C)C(=O)OC(C)C)OC(C)C(=O)OC(C)C)cc2)NC(=O)OC2COC3OCCC23)cc1` (stereo not drawn) [drawing 607 R1=Lac-iPr R2=Lac-iPr] was tested, and the I84V/L90M fold change was “− (≦3)”.
With `CCOC(=O)C(C)NP(=O)(COc1ccc(CC(NC(=O)OC2COC3OCCC23)C(O)CN(CC(C)C)S(=O)(=O)c2ccc(OC)cc2)cc1)OCc1ccccc1` (stereo not drawn) [drawing 608 R1=OBn R2=Ala-Et] the I84V/L90M fold change was “− (≦3)”.
With `COC(=O)C(C)NP(=O)(COc1ccc(CC(NC(=O)OC2COC3OCCC23)C(O)CN(CC(C)C)S(=O)(=O)c2ccc(OC)cc2)cc1)Oc1ccccc1` (stereo not drawn) [drawing 608 R1=OPh R2=Ala-Me] the I84V/L90M fold change was “− (≦3)”.
`CCCCOC(=O)CNP(=O)(COc1ccc(CC(NC(=O)OC2COC3OCCC23)C(O)CN(CC(C)C)S(=O)(=O)c2ccc(OC)cc2)cc1)Oc1ccccc1` (stereo not drawn) [drawing 608 R1=OPh R2=Gly-Bu] was tested, and the I84V/L90M fold change was “− (≦3)”.
In the case of `COc1ccc(S(=O)(=O)N(CC(C)C)CC(O)C(CC2=CCN(CCP(=O)(OCc3ccccc3)OCc3ccccc3)CC2)NC(=O)OC2COC3OCCC23)cc1` (stereo not drawn), the I84V/L90M fold change is reported as “+ (>3 to ≦10)”.
`CCOP(=O)(Cc1ccc(N(C)CC(NC(=O)OC2COC3OCCC23)C(O)CN(CC(C)C)S(=O)(=O)c2ccc(OC)cc2)cc1)OCC` (stereo not drawn) was tested, and the I84V/L90M fold change was “+ (>3 to ≦10)”.
